Test results taken from US20130336950A1, “MATERIAL COMBINATION FOR TREATING INFLAMMATORY OR INFECTIOUS DISEASES” (priority 2010, published 2013).
“Also recorded” adds a separate entry of the source. Ends that are not written are not given here.

How the values were obtained:
[1] = tested on: Bifidobacterium adolescentis; assay: antimicrobial radial diffusion assay, Bif. adolescentis, with and without DTT; type: cell-based; conditions: for antimicrobial activity (diameter of the inhibition zones): anaerobic, 48 h
Experimental: (§1) During execution of the assay in 10 mM sodium phosphate with 0.3 mg/ml of trypticase soya broth (TSB) and 1% (w/v) agarose with low EEO (Sigma-Aldrich), incubation took place in anaerobic conditions with antimicrobial peptides and 0-2 mM DTT. The presence of a reducing environment was controlled by adding the redox indicator resazurin. After 48-h incubation, the diameter of the inhibition zones was measured and was evaluated statistically using GraphPad Prism 4.03 and Student's t-test.
(§2) Small concentrations of the reducing agent dithiothreitol (DTT) were added to the assay medium, whereas medium without DTT served as control.

Bacteroides vulgatus = assay: antimicrobial radial diffusion assay, Bacteroides vulgatus; type: cell-based; conditions: 48 h
Experimental: as §1, §2

human thioredoxin = biological target: T1, human thioredoxin (Homo sapiens, UniProt P10599); assay: thioredoxin reductase assay (reduction of hBD-1, RP-HPLC); type: biochemical; conditions: 10 μM hBD-1, 0.5-1.5 μM thioredoxin, 100 nM thioredoxin reductase, 0.8 mM NADPH, 30 minutes, 37° C.
T1 sequence (P10599 1-105): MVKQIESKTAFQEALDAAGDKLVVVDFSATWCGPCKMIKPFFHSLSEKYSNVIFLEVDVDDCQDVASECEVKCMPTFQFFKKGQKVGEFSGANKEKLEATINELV
Experimental: FIG. 4 Thioredoxin (TRX) co-localized with hBD-1 and is capable of catalyzing the reduction of hBD-1. (A) immuno-histochemistry staining of hBD-1 and thioredoxin of human colon sections. Magnification bars=100 μm. (B) 10 μM oxidized hBD-1 was incubated with or without 0.5, 1.0 and 1.5 μM human thioredoxin and 100 nM rat thioredoxin reductase for 30 minutes at 37° C. in 0.10 M potassium phosphate-2 mM EDTA, pH 7.0 buffer and 0.8 mM NADPH. Incubation assays were analyzed by RP-HPLC and the transformation of oxidized to reduced hBD-1 was observed. hBD-1 ox=oxidized hBD-1, hBD-1 red=reduced hBD-1. […] Formation of inhibition zones was investigated after incubation for 48 hours, representative assays are shown.
The thioredoxin reductase assay was carried out as follows: For this, oxidized hBD-1 was incubated with 0.5-1.5 μM thioredoxin or protein disulfide-isomerase in the presence of 100 nM thioredoxin reductase and 0.8 mM NADPH in 0.1 M […] phosphate buffer-2 mM EDTA. The incubation mixtures were analyzed by RP-HPLC, with which the transformation of oxidized to reduced hBD-1 peptide could be observed.

[2] = tested on: Bifidobacterium adolescentis Ni3,29c; assay: transmission electron microscopy of the bacteria; type: cell-based; conditions: 200 μg/ml, 2 hours, 37° C., anaerobic
Experimental: For transmission electron microscopy of the bacteria, approx. 2×10^8 CFU (colony forming units) of Bifidobacterium adolescentis Ni3,29c were incubated anaerobically for two hours at 37° C. in the absence or in the presence of 200 μg/ml synthetic defensin. The bacteria were centrifuged, fixed in prewarmed Karnovsky's solution and stored at 4° C. for 24 hours. After centrifugation, the pellet was embedded in 3.5% agarose at 37° C., coagulated at room temperature, cut into small blocks and fixed in Karnovsky's solution again. The post-fixing was based on 1.0% osmium tetroxide with 1.5% potassium ferrocyanide in 0.1 M cacodylate buffer. After embedding in glycidyl ether, the blocks were cut with an ultramicrotome (Ultracut, Reichert, Vienna, Austria). Ultrathin sections (30 nm) were applied on copper grids and analyzed with a Zeiss LIBRA 120 transmission electron microscope (Carl Zeiss, Oberkochen, Germany) at 120 kV.

[3] = tested on: Bifidobacterium adolescentis, Bif. breve, Bif. longum and Bif. bifidum; assay: radial diffusion assay, oxidized and reduced peptide against Bifidobacterium spp.; type: cell-based; conditions: oxidized or reduced peptide 1.5 μg, anaerobic, medium without DTT, 48 h
Experimental: as §1
(§3) (FIG. 3A). […] Furthermore, the same assay was carried out with the Gram-positive strains Lactobacillus acidophilus and L. fermentum, and with the Gram-negative strain Bacteroides vulgatus and the facultatively anaerobic strain Escherichia coli K12 (FIG. 3B).

[4] = tested on: Lactobacillus acidophilus and L. fermentum; assay: radial diffusion assay, Lactobacilli; type: cell-based, Lactobacillus spp.; conditions: oxidized or reduced peptide 3 μg, medium without DTT, 48 h
Experimental: as §1, §3

Escherichia coli K12 = assay: radial diffusion assay, Escherichia coli K12; type: cell-based; conditions: oxidized or reduced peptide 1.5 μg, medium without DTT, 48 h
Experimental: as §1, §3

Candida albicans = assay: flow cytometry assay, depolarized yeasts, clinical Candida isolates; type: cell-based; conditions: 40 μg/ml, 90-minute incubation, 5 clinical isolates
Experimental: (A) 1.5 μg oxidized and reduced hBD-1 was incubated with Bifidobacterium spp., Lactobacillus spp., Bacteroides vulgatus (B) and Escherichia coli. For Lactobacilli, the amount of defensin was 3 μg. The formation of inhibition zones was investigated after 48 hours, representative radial diffusion assays from 3 experiments are shown. […] The proportion of depolarized yeasts after 90-minute incubation with reduced or oxidized hBD-1, measured with a flow cytometry assay, is shown. hBD-1 red=reduced hBD-1, hBD-1 ox=oxidized hBD-1. The mean values+standard deviation of two experiments, carried out in each case in duplicate, are shown, (D) cysteine amino acids in the hBD-1 peptide were exchanged for alanine or serine and the hydrophobicity of the hBD-1 variants was analyzed by RP-HPLC. (E) flow cytometry assay for detecting bacterial membrane depolarization of Bifidobacterium adolescentis after incubation with reduced or oxidized hBD-1. Squares show an incubation time of 30 minutes, circles a time of 90 minutes. […] Fixed bacteria were analyzed by transmission microscopy, magnification bars=200 nm.
Flow-cytometry antimicrobial assay, in which the membrane depolarization of the bacteria was measured, was carried out as described in: Nuding, S., et al., “Antibacterial activity of human defensins on anaerobic intestinal bacterial species: a major role of HBD-3.” Microbes. […]

[5] = tested on: Bifidobacterium adolescentis; assay: flow-cytometry antimicrobial assay, bacterial membrane depolarization; type: cell-based
Experimental: Flow-cytometry antimicrobial assay, in which the membrane depolarization of the bacteria was measured, was carried out as described in: Nuding, S., et al., “Antibacterial activity of human defensins on anaerobic intestinal bacterial species: a major role of HBD-3.” Microbes. Infect. 11 (3), 384-393 (2009).
In order to investigate whether the observed inhibition of growth of Gram-positive anaerobes is bacteriostatic or bactericidal, flow-cytometry antimicrobial assays were carried out with bacterial membrane depolarization as the reading system. […] This pointed to a rapid bactericidal effect of the linear hBD-1.

[6] = RP-HPLC analysis of hydrophobicity; type: physicochemical; conditions: water/acetonitrile gradient; reduced hBD-1 vs oxidized hBD-1, variants vs reduced hBD-1
Source text: For the high-performance liquid chromatography (HPLC) analysis, a system of the Agilent 1200 series and a Vydac 218TP-C18 column were used, using a water/acetonitrile gradient with trifluoroacetic acid as ion-pair reagent.

[7] = reducing conditions (DTT added, 1 mM or 2 mM)
[8] = with or without DTT (1 mM or 2 mM), 0.5-2.0 μg peptide
[9] = oxidized or reduced peptide 1.5 μg, medium without DTT
[10] = 30 minutes of incubation, 60 μg/μl

| Substance | antimicrobial activity (diameter of the inhibition zones) ([1]; medium without DTT) | antimicrobial activity (diameter of the inhibition zones) [1, 7] | antimicrobial activity (inhibition zones) (Bacteroides vulgatus; [8]) | morphology of the bacterial cells [2] | antimicrobial activity (inhibition zones) (Bacteroides vulgatus; [9]) | antimicrobial activity (inhibition zones) [3] | antimicrobial activity (inhibition zones) [4] | antimicrobial activity (inhibition zones) (Escherichia coli K12) | antifungal activity (proportion of depolarized yeasts) (Candida albicans) | membrane depolarization of the bacteria [5, 10] | other results |
| --- | --- | --- | --- | --- | --- | --- | --- | --- | --- | --- | --- |
| hBD-1Δ30-36: shortened variant of hBD-1 without the seven C-terminal amino acids GKAKCCK (SEQ ID No. 1) (DHYNCVSSGGQCLYSACPIFTKIQGTCYR; ends and bridges not checked; cysteine pairing not given here; UniProt P60022 33-61, looked up, fragment) | unable to inhibit the growth | unable to inhibit the growth |  |  |  |  |  |  |  |  |  |
| human beta-defensin 1 (DHYNCVSSGGQCLYSACPIFTKIQGTCYRGKAKCCK; disulfide (positions not given here); also: three disulfides, pairing not given here) [hBD-1, synthetic human beta-defensin 1, antimicrobial peptide with three disulfide bridges] | no effect on the growth | antimicrobial activity only through reduction | did not show any antimicrobial activity; also recorded: growth-inhibiting effect was not observed |  |  |  |  |  |  |  | antimicrobial activity compared with hBD-3 ([1]; 2 mM DTT): as effective as hBD-3; antimicrobial activity ([1]; in the presence of 150 mM sodium chloride (data not shown)): disappeared; antimicrobial activity (diameter of the inhibition zones) ([1]; medium with 1 mM DTT): concentration-dependent inhibition zones; transformation of oxidized to reduced hBD-1 (human thioredoxin): reduced by thioredoxin |
| human beta-defensin 3 (GIINTLQKYYCRVRGGRCAVLSCLPKEEQIGKCSTRGRKCCRRKK; UniProt P81534 23-67, looked up) [hBD-3, reference compound] | strong antimicrobial activity | slightly reduced antimicrobial activity; also recorded: reduced activity | concentration-dependent inhibition zones | mainly attacks the bacterial membrane |  |  |  |  |  |  |  |
| lysozyme [reference compound] |  | slightly reduced antimicrobial activity |  |  |  |  |  |  |  |  |  |
| oxidized hBD-1: fully oxidized hBD-1 possessing all disulfide bridges (DHYNCVSSGGQCLYSACPIFTKIQGTCYRGKAKCCK; disulfide (positions not given here); also: three disulfides, pairing not given here) |  |  |  | did not show morphological damage of any kind | no effect | did not show any antimicrobial activity | no effect at all | antimicrobial activity; also recorded: sensitive | no action and not | no significant depolarization | membrane depolarization of the bacteria ([5]; 90 minutes of incubation): no significant depolarization |
| reduced hBD-1: fully reduced, linear hBD-1 with free cysteine residues (DHYNCVSSGGQCLYSACPIFTKIQGTCYRGKAKCCK; Beta-defensin 1 reduced, free cysteines; UniProt P60022 33-68, looked up) |  |  |  | cellular disintegration | no effect | antimicrobial activity against all the strains tested | clear inhibition zones | antimicrobial activity | active against 4 out of 5 clinical Candida isolates; also recorded: effective antifungal activity against four out of five strains | 50% | effectiveness compared with the oxidized form ([5]; flow cytometry, membrane depolarization): more effective; hydrophobicity (RP-HPLC) [6]: more hydrophobic; also recorded: increase in the hydrophobicity |
